# Laboratory results taken from ChEMBL document CHEMBL4507296 (2021).
# Key:
# [1] = biological target: BDNF/NT-3 growth factors receptor (Homo sapiens) (UniProt Q16620); conditions: Compound concentration 1000.0 nM
# [2] = biological target: Mast/stem cell growth factor receptor Kit (Homo sapiens) (UniProt P10721); conditions: Compound concentration 1000.0 nM
# [3] = biological target: Cyclin-dependent kinase 3 (Homo sapiens) (UniProt Q00526); conditions: Compound concentration 1000.0 nM
# [4] = tested on: Tyrosine-protein kinase ABL1 (Homo sapiens), P00519 [F317L]; conditions: Compound concentration 1000.0 nM
# [5] = biological target: Casein kinase II subunit alpha' (Homo sapiens) (UniProt P19784); conditions: Compound concentration 1000.0 nM
# Sequence of Casein kinase II subunit alpha' (Homo sapiens) (P19784 whole entry, looked up): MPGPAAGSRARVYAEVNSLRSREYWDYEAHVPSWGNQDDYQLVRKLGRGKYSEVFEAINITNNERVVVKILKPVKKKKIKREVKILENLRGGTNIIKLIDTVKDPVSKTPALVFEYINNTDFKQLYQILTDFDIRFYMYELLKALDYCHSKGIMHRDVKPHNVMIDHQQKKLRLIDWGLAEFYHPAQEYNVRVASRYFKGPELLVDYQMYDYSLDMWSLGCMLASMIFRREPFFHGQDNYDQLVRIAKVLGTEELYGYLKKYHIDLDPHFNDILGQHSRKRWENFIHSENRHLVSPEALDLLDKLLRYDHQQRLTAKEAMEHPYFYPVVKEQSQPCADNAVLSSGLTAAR
# [6] = biological target: Receptor tyrosine-protein kinase erbB-4 (Homo sapiens) (UniProt Q15303); conditions: Compound concentration 1000.0 nM
# [7] = biological target: Tyrosine-protein kinase BTK (Homo sapiens) (UniProt Q06187); conditions: Compound concentration 1000.0 nM
# [8] = biological target: Myosin light chain kinase 2, skeletal/cardiac muscle (Homo sapiens) (UniProt Q9H1R3); conditions: Compound concentration 1000.0 nM
# [9] = tested on: eIF-2-alpha kinase GCN2 (Homo sapiens), Q9P2K8 [S808G]; conditions: Compound concentration 1000.0 nM
# [10] = biological target: Serine/threonine-protein kinase 24 (Homo sapiens) (UniProt Q9Y6E0); conditions: Compound concentration 1000.0 nM
# Sequence of Serine/threonine-protein kinase 24 (Homo sapiens) (Q9Y6E0 whole entry, looked up): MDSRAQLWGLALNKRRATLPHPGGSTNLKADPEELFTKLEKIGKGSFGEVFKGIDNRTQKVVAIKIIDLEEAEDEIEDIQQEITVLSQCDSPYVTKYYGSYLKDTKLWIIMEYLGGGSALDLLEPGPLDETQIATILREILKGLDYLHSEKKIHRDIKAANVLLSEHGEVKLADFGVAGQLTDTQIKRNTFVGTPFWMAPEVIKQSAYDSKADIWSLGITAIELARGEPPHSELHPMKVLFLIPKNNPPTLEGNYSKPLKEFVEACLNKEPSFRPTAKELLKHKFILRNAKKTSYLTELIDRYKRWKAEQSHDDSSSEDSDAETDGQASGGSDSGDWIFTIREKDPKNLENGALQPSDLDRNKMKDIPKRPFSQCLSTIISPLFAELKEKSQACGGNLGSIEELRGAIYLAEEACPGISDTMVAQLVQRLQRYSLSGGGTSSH
# [11] = tested on: Serine/threonine-protein kinase B-raf (Homo sapiens), P15056 [V600E]; conditions: Compound concentration 1000.0 nM
# [12] = biological target: 1-phosphatidylinositol 3-phosphate 5-kinase (Homo sapiens) (UniProt Q9Y2I7); conditions: Compound concentration 1000.0 nM
# [13] = biological target: Tyrosine-protein kinase Fyn (Homo sapiens) (UniProt P06241); conditions: Compound concentration 1000.0 nM
# [14] = tested on: Receptor-type tyrosine-protein kinase FLT3 (Homo sapiens), P36888 [UNDEFINED MUTATION]; conditions: Compound concentration 1000.0 nM
# [15] = tested on: Mast/stem cell growth factor receptor Kit (Homo sapiens), P10721 [D816V]; conditions: Compound concentration 1000.0 nM
# [16] = biological target: Casein kinase II subunit alpha (Homo sapiens) (UniProt P68400); conditions: Compound concentration 1000.0 nM
# Sequence of Casein kinase II subunit alpha (Homo sapiens) (P68400 whole entry, looked up): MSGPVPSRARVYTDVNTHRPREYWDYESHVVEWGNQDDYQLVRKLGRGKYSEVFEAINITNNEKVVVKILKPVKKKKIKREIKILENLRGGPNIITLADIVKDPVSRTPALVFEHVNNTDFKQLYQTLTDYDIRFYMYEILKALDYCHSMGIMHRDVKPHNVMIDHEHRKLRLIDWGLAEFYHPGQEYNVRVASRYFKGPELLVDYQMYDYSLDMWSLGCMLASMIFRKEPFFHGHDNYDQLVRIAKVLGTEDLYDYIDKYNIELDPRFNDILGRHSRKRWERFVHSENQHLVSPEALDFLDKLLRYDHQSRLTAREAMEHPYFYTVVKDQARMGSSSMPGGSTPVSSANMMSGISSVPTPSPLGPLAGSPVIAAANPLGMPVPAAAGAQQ
# [17] = biological target: Tyrosine-protein kinase HCK (Homo sapiens) (UniProt P08631); conditions: Compound concentration 1000.0 nM
# [18] = biological target: Dual specificity mitogen-activated protein kinase kinase 5 (Homo sapiens) (UniProt Q13163); conditions: Compound concentration 1000.0 nM
# Sequence of Dual specificity mitogen-activated protein kinase kinase 5 (Homo sapiens) (Q13163 whole entry): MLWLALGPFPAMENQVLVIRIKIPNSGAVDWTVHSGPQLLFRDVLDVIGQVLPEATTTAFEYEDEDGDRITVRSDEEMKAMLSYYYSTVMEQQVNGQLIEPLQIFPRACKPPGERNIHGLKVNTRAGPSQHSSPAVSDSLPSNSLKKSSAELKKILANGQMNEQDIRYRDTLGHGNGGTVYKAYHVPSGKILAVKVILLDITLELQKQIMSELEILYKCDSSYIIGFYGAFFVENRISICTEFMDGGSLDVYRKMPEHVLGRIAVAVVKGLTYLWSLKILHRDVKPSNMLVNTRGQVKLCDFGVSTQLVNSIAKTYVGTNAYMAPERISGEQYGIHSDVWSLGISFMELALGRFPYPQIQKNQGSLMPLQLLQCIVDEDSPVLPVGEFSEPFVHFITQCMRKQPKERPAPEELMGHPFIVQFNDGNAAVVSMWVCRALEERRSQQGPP
# [19] = biological target: Citron Rho-interacting kinase (Homo sapiens) (UniProt O14578); conditions: Compound concentration 1000.0 nM
# [20] = biological target: Glycogen synthase kinase-3 alpha (Homo sapiens) (UniProt P49840); conditions: Compound concentration 1000.0 nM
# [21] = biological target: Ephrin type-A receptor 5 (Homo sapiens) (UniProt P54756); conditions: Compound concentration 1000.0 nM
# [22] = biological target: Serine/threonine-protein kinase D2 (Homo sapiens) (UniProt Q9BZL6); conditions: Compound concentration 1000.0 nM
# [23] = biological target: cAMP-dependent protein kinase catalytic subunit beta (Homo sapiens) (UniProt P22694); conditions: Compound concentration 1000.0 nM
# [24] = biological target: Mitogen-activated protein kinase kinase kinase 5 (Homo sapiens) (UniProt Q99683); conditions: Compound concentration 1000.0 nM
# Sequence of Mitogen-activated protein kinase kinase kinase 5 (Homo sapiens) (Q99683 whole entry): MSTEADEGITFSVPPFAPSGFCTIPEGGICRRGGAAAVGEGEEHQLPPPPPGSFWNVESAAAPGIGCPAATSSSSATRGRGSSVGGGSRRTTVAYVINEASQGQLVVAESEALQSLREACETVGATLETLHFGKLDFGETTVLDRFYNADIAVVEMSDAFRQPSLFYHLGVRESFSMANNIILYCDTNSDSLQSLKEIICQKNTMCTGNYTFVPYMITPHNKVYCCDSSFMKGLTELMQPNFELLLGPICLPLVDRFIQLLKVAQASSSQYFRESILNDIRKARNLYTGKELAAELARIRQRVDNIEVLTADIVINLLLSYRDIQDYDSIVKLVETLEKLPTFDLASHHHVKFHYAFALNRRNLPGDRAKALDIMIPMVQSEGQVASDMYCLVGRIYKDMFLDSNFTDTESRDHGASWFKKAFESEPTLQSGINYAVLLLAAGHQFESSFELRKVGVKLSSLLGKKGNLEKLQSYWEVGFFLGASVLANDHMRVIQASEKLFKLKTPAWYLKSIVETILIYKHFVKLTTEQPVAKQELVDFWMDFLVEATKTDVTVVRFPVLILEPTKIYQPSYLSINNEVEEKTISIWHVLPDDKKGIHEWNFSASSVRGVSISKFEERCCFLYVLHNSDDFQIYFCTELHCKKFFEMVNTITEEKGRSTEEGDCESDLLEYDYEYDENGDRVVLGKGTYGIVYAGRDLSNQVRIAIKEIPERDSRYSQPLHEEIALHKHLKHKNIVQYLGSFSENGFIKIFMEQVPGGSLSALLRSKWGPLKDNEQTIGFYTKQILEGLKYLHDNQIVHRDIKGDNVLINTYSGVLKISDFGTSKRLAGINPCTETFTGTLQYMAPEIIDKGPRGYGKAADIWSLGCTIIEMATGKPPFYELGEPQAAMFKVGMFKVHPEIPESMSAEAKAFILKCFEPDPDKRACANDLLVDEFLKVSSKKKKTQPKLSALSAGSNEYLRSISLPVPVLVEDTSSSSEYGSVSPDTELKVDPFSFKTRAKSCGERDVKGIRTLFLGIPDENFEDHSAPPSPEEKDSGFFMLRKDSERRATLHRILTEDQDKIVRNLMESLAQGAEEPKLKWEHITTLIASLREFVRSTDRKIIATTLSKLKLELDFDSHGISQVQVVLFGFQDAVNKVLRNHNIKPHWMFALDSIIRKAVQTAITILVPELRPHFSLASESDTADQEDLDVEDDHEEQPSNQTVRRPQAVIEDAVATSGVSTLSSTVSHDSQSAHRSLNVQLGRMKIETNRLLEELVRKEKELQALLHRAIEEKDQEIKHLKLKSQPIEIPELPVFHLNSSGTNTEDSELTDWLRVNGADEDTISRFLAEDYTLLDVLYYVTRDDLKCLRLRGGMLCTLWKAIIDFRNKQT
# [25] = biological target: Dual specificity protein kinase CLK2 (Homo sapiens) (UniProt P49760); conditions: Compound concentration 1000.0 nM
# [26] = biological target: Ankyrin repeat and protein kinase domain-containing protein 1 (Homo sapiens) (UniProt Q8NFD2); conditions: Compound concentration 1000.0 nM
# [27] = biological target: Mitogen-activated protein kinase kinase kinase 10 (Homo sapiens) (UniProt Q02779); conditions: Compound concentration 1000.0 nM
# [28] = biological target: Homeodomain-interacting protein kinase 4 (Homo sapiens) (UniProt Q8NE63); conditions: Compound concentration 1000.0 nM
# [29] = biological target: Myosin light chain kinase family member 4 (Homo sapiens) (UniProt Q86YV6); conditions: Compound concentration 1000.0 nM
# [30] = biological target: Serine/threonine-protein kinase PAK 1 (Homo sapiens) (UniProt Q13153); conditions: Compound concentration 1000.0 nM
# [31] = biological target: Calcium/calmodulin-dependent protein kinase type 1 (Homo sapiens) (UniProt Q14012); conditions: Compound concentration 1000.0 nM
# [32] = biological target: Platelet-derived growth factor receptor alpha (Homo sapiens) (UniProt P16234); conditions: Compound concentration 1000.0 nM
# [33] = biological target: Serine/threonine-protein kinase Nek4 (Homo sapiens) (UniProt P51957); conditions: Compound concentration 1000.0 nM
# [34] = biological target: G protein-coupled receptor kinase 3 (Homo sapiens) (UniProt P35626); conditions: Compound concentration 1000.0 nM
# [35] = biological target: 5'-AMP-activated protein kinase catalytic subunit alpha-1 (Homo sapiens) (UniProt Q13131); conditions: Compound concentration 1000.0 nM
# [36] = biological target: Serine/threonine-protein kinase Nek10 (Homo sapiens) (UniProt Q6ZWH5); conditions: Compound concentration 1000.0 nM
# [37] = biological target: Casein kinase I isoform gamma-3 (Homo sapiens) (UniProt Q9Y6M4); conditions: Compound concentration 1000.0 nM
# Sequence of Casein kinase I isoform gamma-3 (Homo sapiens) (Q9Y6M4 whole entry, looked up, canonical isoform): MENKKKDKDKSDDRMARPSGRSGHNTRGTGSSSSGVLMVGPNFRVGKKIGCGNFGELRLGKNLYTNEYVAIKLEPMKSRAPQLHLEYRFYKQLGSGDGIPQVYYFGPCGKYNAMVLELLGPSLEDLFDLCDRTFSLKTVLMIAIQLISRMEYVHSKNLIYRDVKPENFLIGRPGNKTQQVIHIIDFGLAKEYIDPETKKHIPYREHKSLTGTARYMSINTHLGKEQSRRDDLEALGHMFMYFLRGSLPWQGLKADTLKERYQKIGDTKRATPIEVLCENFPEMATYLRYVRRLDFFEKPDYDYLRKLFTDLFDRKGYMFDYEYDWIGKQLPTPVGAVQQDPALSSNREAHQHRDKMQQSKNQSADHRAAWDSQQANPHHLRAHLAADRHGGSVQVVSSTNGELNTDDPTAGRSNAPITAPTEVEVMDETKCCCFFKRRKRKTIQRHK
# [38] = biological target: Phosphatidylinositol 4-phosphate 5-kinase type-1 gamma (Homo sapiens) (UniProt O60331); conditions: Compound concentration 1000.0 nM
# [39] = GPCRScan assay: inhibition of GABA/PBR; parameters: species or system Rattus norvegicus; radioligand conc. used [nm] 0.3 – 2.0, parental cells brain tissue
# [40] = biological target: Mitogen-activated protein kinase kinase kinase 15 (Homo sapiens) (UniProt Q6ZN16); conditions: Compound concentration 1000.0 nM
# [41] = biological target: Serine/threonine-protein kinase Nek5 (Homo sapiens) (UniProt Q6P3R8); conditions: Compound concentration 1000.0 nM
# [42] = biological target: RAC-gamma serine/threonine-protein kinase (Homo sapiens) (UniProt Q9Y243); conditions: Compound concentration 1000.0 nM
# [43] = biological target: Tyrosine-protein kinase ABL2 (Homo sapiens) (UniProt P42684); conditions: Compound concentration 1000.0 nM
# [44] = biological target: Serine/threonine-protein kinase D3 (Homo sapiens) (UniProt O94806); conditions: Compound concentration 1000.0 nM
# [45] = biological target: Serine/threonine-protein kinase SIK1 (Homo sapiens) (UniProt P57059); conditions: Compound concentration 1000.0 nM
# Sequence of Serine/threonine-protein kinase SIK1 (Homo sapiens) (P57059 whole entry): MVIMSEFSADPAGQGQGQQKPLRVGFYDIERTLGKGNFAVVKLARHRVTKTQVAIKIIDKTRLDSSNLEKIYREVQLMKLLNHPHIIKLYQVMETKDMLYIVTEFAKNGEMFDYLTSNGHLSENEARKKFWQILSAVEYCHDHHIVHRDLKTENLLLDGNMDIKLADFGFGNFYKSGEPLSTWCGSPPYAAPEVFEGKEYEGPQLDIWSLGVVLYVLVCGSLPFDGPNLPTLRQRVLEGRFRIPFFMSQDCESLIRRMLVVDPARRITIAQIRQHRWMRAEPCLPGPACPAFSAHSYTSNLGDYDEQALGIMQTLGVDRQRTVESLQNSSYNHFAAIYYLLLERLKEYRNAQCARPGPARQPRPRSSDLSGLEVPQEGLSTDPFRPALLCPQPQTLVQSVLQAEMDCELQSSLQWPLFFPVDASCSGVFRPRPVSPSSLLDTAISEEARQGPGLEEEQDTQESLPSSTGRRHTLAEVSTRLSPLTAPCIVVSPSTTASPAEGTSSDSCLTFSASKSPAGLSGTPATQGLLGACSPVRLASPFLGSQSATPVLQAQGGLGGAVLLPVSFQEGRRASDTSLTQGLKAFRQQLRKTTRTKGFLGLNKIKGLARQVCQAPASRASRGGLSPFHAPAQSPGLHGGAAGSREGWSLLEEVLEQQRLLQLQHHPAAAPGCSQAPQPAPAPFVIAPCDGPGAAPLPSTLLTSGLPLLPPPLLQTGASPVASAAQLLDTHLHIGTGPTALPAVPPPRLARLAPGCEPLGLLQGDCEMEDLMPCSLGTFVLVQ
# Sequence of BDNF/NT-3 growth factors receptor (Homo sapiens) (Q16620 32-822 limits assumed): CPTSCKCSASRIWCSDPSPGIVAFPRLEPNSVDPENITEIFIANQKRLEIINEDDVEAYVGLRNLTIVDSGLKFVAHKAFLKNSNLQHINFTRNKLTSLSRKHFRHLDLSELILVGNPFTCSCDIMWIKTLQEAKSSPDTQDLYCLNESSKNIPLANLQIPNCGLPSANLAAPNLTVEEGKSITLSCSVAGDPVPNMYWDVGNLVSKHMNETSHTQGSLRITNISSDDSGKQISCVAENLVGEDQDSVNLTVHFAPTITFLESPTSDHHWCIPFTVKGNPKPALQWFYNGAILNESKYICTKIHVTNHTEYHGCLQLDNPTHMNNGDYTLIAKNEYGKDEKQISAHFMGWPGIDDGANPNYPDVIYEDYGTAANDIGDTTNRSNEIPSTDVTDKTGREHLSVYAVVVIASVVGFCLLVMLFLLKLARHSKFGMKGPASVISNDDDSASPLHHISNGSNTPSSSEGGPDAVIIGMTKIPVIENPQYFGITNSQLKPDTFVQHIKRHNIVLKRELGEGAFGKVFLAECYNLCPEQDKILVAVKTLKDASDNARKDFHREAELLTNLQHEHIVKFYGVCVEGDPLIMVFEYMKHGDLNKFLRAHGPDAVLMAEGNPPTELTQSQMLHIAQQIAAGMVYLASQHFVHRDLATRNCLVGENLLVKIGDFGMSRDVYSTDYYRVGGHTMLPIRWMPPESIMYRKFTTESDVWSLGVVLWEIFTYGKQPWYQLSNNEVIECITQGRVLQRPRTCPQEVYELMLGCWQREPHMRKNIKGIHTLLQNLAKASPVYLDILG
structure (smiles),measurement,setting,value
C[C@H](c1ccc(F)cc1)N(Cc1cccc(C(=O)O)c1)C(=O)c1cnc2ccccc2c1 [PF-05105679],residual activity,[1],100%
same,residual activity,[2],100%
same,residual activity,[3],98%
same,residual activity,[4],91%
same,residual activity,[5],86%
same,residual activity,[6],94%
same,residual activity,[7],95%
same,residual activity,[8],100%
same,residual activity,[9],100%
same,residual activity,[10],100%
same,residual activity,[11],100%
same,residual activity,[12],100%
same,residual activity,[13],63%
same,residual activity,[14],100%
same,residual activity,[15],100%
same,residual activity,[16],100%
same,residual activity,[17],88%
same,residual activity,[18],92%
same,residual activity,[19],100%
same,residual activity,[20],100%
same,residual activity,[21],98%
same,residual activity,[22],100%
same,residual activity,[23],82%
same,residual activity,[24],100%
same,residual activity,[25],98%
same,residual activity,[26],81%
same,residual activity,[27],100%
same,residual activity,[28],93%
same,residual activity,[29],99%
same,residual activity,[30],100%
same,residual activity,[31],100%
same,residual activity,[32],100%
same,residual activity,[33],100%
same,residual activity,[34],40%
same,residual activity,[35],100%
same,residual activity,[36],96%
same,residual activity,[37],100%
same,residual activity,[38],100%
same,Ki,[39],1.02 µM
same,pKi,[39],5.99
same,residual activity,[40],100%
same,residual activity,[41],100%
same,residual activity,[42],100%
same,residual activity,[43],82%
same,residual activity,[44],100%
same,residual activity,[45],90%
